Experiments:
Experiment in all cases: post-emergence herbicidal activity, greenhouse
Assay type in all cases: in vivo
[1] = test system: Panicum Spp; conditions: Table III
Method in brief: (§1)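 Foliar spray, chamber, atomizer; plants 2–3 weeks old in topsoil pans; emulsifier ~0.4% by weight; rates as listed. Rating: injury relative to controls, ~2 and ~4 WAT.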

[2] = test system: Barnyardgrass
Method in brief: as §1

[3] = test system: Yellow Nutsedge; conditions: Table II
Method in brief: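 Candidate chemical is applied by atomizer at the indicated rates to emerged plants of 2–3 weeks, spray containing about 0.4 wt% emulsifier. Effects are judged as injury against unsprayed control pans, approximately two and four weeks post-application.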

[4] = test system: Large Crabgrass; conditions: Table III
Method in brief: as §1

[5] = test system: Pennsylvania Smartweed
Method in brief: as §1

[6] = test system: Downy Brome; conditions: Table II; 2 WAT; 5.6 kg/h
Method in brief: as §1

[7] = 2 WAT, 1.1 kg/h, formulated in anhydrous tetrahydrofuran
[8] = 2 WAT, 5.6 kg/h, formulated in anhydrous tetrahydrofuran
[9] = 2 WAT, .28 kg/h, formulated in anhydrous tetrahydrofuran
[10] = 4 WAT, 1.1 kg/h, formulated in anhydrous tetrahydrofuran
[11] = 4 WAT, 5.6 kg/h, formulated in anhydrous tetrahydrofuran
[12] = 4 WAT, .28 kg/h, formulated in anhydrous tetrahydrofuran
[13] = Table II, 2 WAT, 5.6 kg/h, formulated in anhydrous tetrahydrofuran
[14] = Table II, 2 WAT, 11.2 kg/h, formulated in anhydrous tetrahydrofuran
[15] = Table II, 4 WAT, 5.6 kg/h, formulated in anhydrous tetrahydrofuran
[16] = Table II, 4 WAT, 11.2 kg/h, formulated in anhydrous tetrahydrofuran
[17] = Table III, 2 WAT, 1.1 kg/h, formulated in anhydrous tetrahydrofuran
[18] = Table III, 2 WAT, .28 kg/h, formulated in anhydrous tetrahydrofuran
[19] = Table III, 4 WAT, 1.1 kg/h, formulated in anhydrous tetrahydrofuran
[20] = Table III, 4 WAT, .28 kg/h, formulated in anhydrous tetrahydrofuran

**Q.** What does the source list for CCCCOC(=O)CNCP(=O)(O)O[Si](c1ccccc1)(c1ccccc1)C(C)(C)C [Ex. 6, Glycine, N--((([(1,1-Dimethylethyl)Diphenylsilyl]Oxy)Hydroxyphosphinyl)methyl)-Butyl Ester]?
**A.** Plant Response Index (S) ([1]; 2 WAT, 1.1 kg/h): 3 (75-99% inhibition); Plant Response Index (S) [1, 7]: 2 (50-74% inhibition); Plant Response Index (S) ([1]; 2 WAT, 5.6 kg/h): 4 (100% inhibition); Plant Response Index (S) [1, 8]: 2 (50-74% inhibition); Plant Response Index (S) ([1]; 2 WAT, .28 kg/h): 2 (50-74% inhibition); Plant Response Index (S) [1, 9]: 0 (0-24% inhibition); Plant Response Index (S) ([1]; 4 WAT, 1.1 kg/h): 3 (75-99% inhibition); Plant Response Index (S) [1, 10]: 2 (50-74% inhibition); Plant Response Index (S) ([1]; 4 WAT, 5.6 kg/h): 4 (100% inhibition); Plant Response Index (S) [1, 11]: 3 (75-99% inhibition); Plant Response Index (S) [1, 12]: 0 (0-24% inhibition); Plant Response Index (K) ([2]; Table II, 2 WAT, 5.6 kg/h): 1 (25-49% inhibition); Plant Response Index (K) [2, 13]: 1 (25-49% inhibition); Plant Response Index (K) ([2]; Table II, 2 WAT, 11.2 kg/h): 2 (50-74% inhibition); Plant Response Index (K) [2, 14]: 1 (25-49% inhibition); Plant Response Index (K) ([2]; Table II, 4 WAT, 5.6 kg/h): 2 (50-74% inhibition); Plant Response Index (K) [2, 15]: 2 (50-74% inhibition); Plant Response Index (K) ([2]; Table II, 4 WAT, 11.2 kg/h): 3 (75-99% inhibition); Plant Response Index (K) [2, 16]: 1 (25-49% inhibition); Plant Response Index (K) ([2]; Table III, 2 WAT, 1.1 kg/h): 2 (50-74% inhibition); Plant Response Index (K) [2, 17]: 2 (50-74% inhibition); Plant Response Index (K) ([2]; Table III, 2 WAT, 5.6 kg/h): 3 (75-99% inhibition); Plant Response Index (K) ([2]; Table III, 2 WAT, 5.6 kg/h, formulated in anhydrous tetrahydrofuran): 2 (50-74% inhibition); Plant Response Index (K) ([2]; Table III, 2 WAT, .28 kg/h): 2 (50-74% inhibition); Plant Response Index (K) [2, 18]: 0 (0-24% inhibition); Plant Response Index (K) ([2]; Table III, 4 WAT, 1.1 kg/h): 2 (50-74% inhibition); Plant Response Index (K) [2, 19]: 2 (50-74% inhibition); Plant Response Index (K) ([2]; Table III, 4 WAT, 5.6 kg/h): 3 (75-99% inhibition); Plant Response Index (K) ([2]; Table III, 4 WAT, 5.6 kg/h, formulated in anhydrous tetrahydrofuran): 2 (50-74% inhibition); Plant Response Index (K) [2, 20]: 0 (0-24% inhibition); Plant Response Index (G) ([3]; 2 WAT, 5.6 kg/h): 0 (0-24% inhibition); Plant Response Index (G) [3, 8]: 0 (0-24% inhibition); Plant Response Index (G) ([3]; 2 WAT, 11.2 kg/h): 1 (25-49% inhibition); Plant Response Index (G) ([3]; 2 WAT, 11.2 kg/h, formulated in anhydrous tetrahydrofuran): 0 (0-24% inhibition); Plant Response Index (G) ([3]; 4 WAT, 5.6 kg/h): 1 (25-49% inhibition); Plant Response Index (G) [3, 11]: 1 (25-49% inhibition); Plant Response Index (G) ([3]; 4 WAT, 11.2 kg/h): 2 (50-74% inhibition); Plant Response Index (G) ([3]; 4 WAT, 11.2 kg/h, formulated in anhydrous tetrahydrofuran): 1 (25-49% inhibition); Plant Response Index (T) ([4]; 2 WAT, 1.1 kg/h): 4 (100% inhibition); Plant Response Index (T) [4, 7]: 4 (100% inhibition); Plant Response Index (T) ([4]; 2 WAT, 5.6 kg/h): 4 (100% inhibition); Plant Response Index (T) [4, 8]: 4 (100% inhibition); Plant Response Index (T) ([4]; 2 WAT, .28 kg/h): 4 (100% inhibition); Plant Response Index (T) [4, 9]: 1 (25-49% inhibition); Plant Response Index (T) ([4]; 4 WAT, 1.1 kg/h): 4 (100% inhibition); Plant Response Index (T) [4, 10]: 4 (100% inhibition); Plant Response Index (T) ([4]; 4 WAT, 5.6 kg/h): 4 (100% inhibition); Plant Response Index (T) [4, 11]: 4 (100% inhibition); Plant Response Index (T) [4, 12]: 0 (0-24% inhibition); Plant Response Index (F) ([5]; Table II, 2 WAT, 5.6 kg/h): 0 (0-24% inhibition); Plant Response Index (F) [5, 13]: 0 (0-24% inhibition); Plant Response Index (F) ([5]; Table II, 2 WAT, 11.2 kg/h): 2 (50-74% inhibition); Plant Response Index (F) [5, 14]: 0 (0-24% inhibition); Plant Response Index (F) ([5]; Table II, 4 WAT, 5.6 kg/h): 0 (0-24% inhibition); Plant Response Index (F) [5, 15]: 0 (0-24% inhibition); Plant Response Index (F) ([5]; Table II, 4 WAT, 11.2 kg/h): 2 (50-74% inhibition); Plant Response Index (F) [5, 16]: 0 (0-24% inhibition); Plant Response Index (F) ([5]; Table III, 2 WAT, 1.1 kg/h): 2 (50-74% inhibition); Plant Response Index (F) [5, 17]: 3 (75-99% inhibition); Plant Response Index (F) ([5]; Table III, 2 WAT, 5.6 kg/h): 3 (75-99% inhibition); Plant Response Index (F) ([5]; Table III, 2 WAT, .28 kg/h): 3 (75-99% inhibition); Plant Response Index (F) [5, 18]: 1 (25-49% inhibition); Plant Response Index (F) ([5]; Table III, 4 WAT, 1.1 kg/h): 3 (75-99% inhibition); Plant Response Index (F) [5, 19]: 4 (100% inhibition); Plant Response Index (F) ([5]; Table III, 4 WAT, 5.6 kg/h): 3 (75-99% inhibition); Plant Response Index (F) [5, 20]: 1 (25-49% inhibition); Plant Response Index (J) [6]: 0 (0-24% inhibition)

Reference: patent US4471131A, “Novel silyl esters of N-phosphonomethylglycine” (Monsanto Company, priority 1983, dated 1984)
